# Several values for one entry are separate records, joined by “and”; a condition that tells them apart may be missing. Equal entries are not always repeated. Entries after “also recorded” stand apart in the source; their conditions may differ. Where two headings read alike, the source gives them in different places.
# Assays:
# [1] = test system: unanesthetized rats receiving continuous intravenous infusion of fentanyl; design: species or system Sprague Dawley rat; settings: rat, in vivo
# [2] = test system: unanesthetized rats receiving continuous intravenous infusion of fentanyl; design: species or system Sprague Dawley rat; settings: rat, in vivo; remark: listed apart in the source
# [3] = test system: unanesthetized rats receiving continuous intravenous infusion of fentanyl; design: species or system Sprague Dawley rat; settings: rat, in vivo; remark: listed apart in the source
# [4] = test system: rats receiving infusion of fentanyl; design: species or system Sprague-Dawley rat; settings: rat, in vivo
# [5] = test system: rats given bolus injections of fentanyl or morphine; settings: rat, in vivo
# [6] = test system: unanesthetized rats receiving continuous intravenous infusion of fentanyl; design: species or system Sprague Dawley rat; settings: rat, in vivo; remark: listed apart in the source
# [7] = test system: freely moving rats injected with morphine; test: Ventilatory responses to morphine and subsequent injections of L-NACme; type: in vivo, rat
# [8] = after morphine 10 mg/kg IV, two injections of L-NACme 500 μmol/kg IV
# [9] = before morphine, group later given L-NACme
# [10] = morphine 10 mg/kg IV, before L-NACme
smiles,measurement,setting,value
"CC(=O)N[C@@H](CS)C(=O)O [L-NAC, N-acetyl-L-cysteine]","EEP, actual value",[1],45.4 ms
same,"EF50, baseline",[1],0.36 ± 0.03 mL/s
same,"EIP, actual value",[1],7.9 ms
same,"Effect on Freq, TV and MV (words, FIG. 1)",[1],immediate and sustained increase in these parameters to levels approaching (Freq and MV) and actually reaching (TV) pre-infusion levels; also recorded: did not further boost Freq whereas it did boost TV and therefore MV
same,"Effect on NEBI (words, FIG. 11)",[1],noticeable decrease in NEBI
same,"Effect on PEF (words, FIG. 4)",[1],substantial and sustained increases in PEF
same,"Effect on PIF (words, FIG. 4)",[1],sustained partial recover of PIF
same,"Effect on Te (words, FIG. 2)",[1],prevented this increase in Te
same,"Effect on Ti/Te (words, FIG. 2)",[1],sustained elevation in Ti/Te compared to vehicle-injected rats
same,"Effect on expiratory drive (words, FIG. 5)",[1],"immediate, substantial and sustained increases in expiratory dive"
same,"End Expiratory Pause, baseline",[1],44.3 ± 4.0
same,"ExpD TV/Te, actual value",[1],5.5 mL/s
same,"Expiratory Drive (TV/Te), baseline",[1],5.5 ± 0.3 mL/s
same,"Expiratory Time (Te), baseline",[1],0.443 ± 0.022 s
same,"Freq, actual value",[1],102 breaths/min
same,"Frequency of Breathing (Freq), baseline",[1],102 ± 5 breaths/min
same,"InspD (TV/Ti), actual value",[1],12.4 mL/s
same,"Inspiratory Drive (TV/Ti), baseline",[1],12.4 ± 0.6 mL/s
same,"Inspiratory Time (Ti), baseline",[1],0.200 ± 0.010 s
same,"Level of NEBI (words, FIG. 11)",[1],not noticeably different from those that received the second injection of vehicle
same,"MV, actual value",[1],247 mL/min
same,"Minute Ventilation, baseline",[1],247 ± 14 mL/min
same,"NEBI, actual value",[1],2.6%
same,"PEF, actual value",[1],11.2
same,"PIF/PEF, actual value",[1],1.61
same,"PIF/PEF, baseline",[1],1.63 ± 0.11
same,"Pause, (Te/RT) − 1, baseline",[1],0.40 ± 0.08
same,"Pause, (Te/RT)-1, actual value",[1],0.40
same,"Peak Expiratory Flow (PEF), baseline",[1],11.2 ± 0.7 mL/s
same,"Peak Inspiratory Flow (PIF), baseline",[1],17.6 ± 1.1 mL/s
same,"RT, actual value",[1],0.32 s
same,"Relaxation Time (RT), baseline",[1],0.32 ± 0.02 s
same,"TV, actual value",[1],2.42 mL
same,"Te − RT, baseline",[1],0.12 ± 0.02
same,"Te, actual value",[1],0.44 s
same,"Te-RT, actual value",[1],0.12
same,"Ti, actual value",[1],0.20 s
same,"Ti/Te, actual value",[1],0.46
same,"Ti/Te, baseline",[1],0.46 ± 0.02
same,"Tidal Volume, baseline",[1],2.42 ± 0.05 mL
same,"Total (cumulative) change in NEBI (words, FIG. 7)",[1],virtually eliminated NEBI
same,"Total (cumulative) change in PEF (words, FIG. 7)",[1],pronounced increase in PEF
same,"Total (cumulative) change in expiratory drive (words, FIG. 7)",[1],converted the decrease in expiratory drive (ExpD) to an increase
same,"EF50, total percent change",[1]; iv,+57.6 ± 11.3%
same,"EIP, actual value",[1]; iv,20.2 ms and 19.7 ms
same,"EIP, arithmetic change",[1]; iv,+12 msec
same,"End Expiratory Pause, total percent change",[1]; iv,+9.1 ± 6.3%
same,"End Inspiratory Pause, total percent change",[1]; iv,+147.0 ± 12.9%
same,"ExpD TV/Te, actual value",[1]; iv,4.6 mL/s and 6.9 mL/s and 8.1 mL/s
same,"Expiratory Drive (TV/Te), total percent change",[1]; iv,−14.6 ± 3.1%
same,"Expiratory Time (Te), total percent change",[1]; iv,−10.3 ± 3.5%
same,"Freq, actual value",[1]; iv,78 breaths/min and 90 breaths/min and 89 breaths/min
same,"Frequency of Breathing (Freq), total percent change",[1]; iv,−21.6 ± 2.4%
same,"InspD (TV/Ti), actual value",[1]; iv,4.8 mL/s and 6.6 mL/s and 7.9 mL/s
same,"Inspiratory Drive (TV/Ti), total percent change",[1]; iv,−56.3 ± 2.7%
same,"Inspiratory Time (Ti), total percent change",[1]; iv,+82.5 ± 14.1%
same,"MV, actual value",[1]; iv,135 mL/min and 210 mL/min and 241 mL/min
same,"Minute Ventilation, total percent change",[1]; iv,−39.9 ± 2.7%
same,"NEBI, actual value",[1]; iv,2.0% and 1.0% and 1.3%
same,"NEBI, arithmetic change",[1]; iv,−0.6% and −1.6% and −1.3%
same,"PEF, actual value",[1]; iv,11.2 and 13.8 and 15.3
same,"PIF/PEF, actual value",[1]; iv,0.82 and 0.84 and 0.93
same,"PIF/PEF, total percent change",[1]; iv,−42.1 ± 4.7%
same,"Pause, (Te/RT) − 1, total percent change",[1]; iv,+348.6 ± 67.4%
same,"Pause, (Te/RT)-1, actual value",[1]; iv,1.32 and 0.94
same,"Peak Expiratory Flow (PEF), total percent change",[1]; iv,−2.2 ± 2.8%
same,"Peak Inspiratory Flow (PIF), total percent change",[1]; iv,−44.0 ± 3.7%
same,"RT, actual value",[1]; iv,0.17 s and 0.18 s
same,"Relaxation Time (RT), total percent change",[1]; iv,−41.4 ± 4.6%
same,"TV, actual value",[1]; iv,1.73 mL and 2.34 mL and 2.71 mL
same,"Te − RT, total percent change",[1]; iv,+129.9 ± 28.2%
same,"Te, actual value",[1]; iv,0.38 s and 0.34 s
same,"Te-RT, actual value",[1]; iv,0.21 and 0.17 and 0.16
same,"Ti, actual value",[1]; iv,0.36 s and 0.35 s
same,"Ti/Te, actual value",[1]; iv,0.96 and 1.06 and 1.05
same,"Ti/Te, total percent change",[1]; iv,+104.4 ± 11.6%
same,"Tidal Volume, total percent change",[1]; iv,−23.5 ± 2.5%
same,Actual TFL values,[2],11.9 ± 0.1 s and 11.5 ± 0.1 s
same,"Righting reflex, time to get back on all four paws",[3],4.6 ± 1.5 s
same,"Fecal output, number of pellets, total weight (words, FIG. 13C-D)",[4],normalized by L-NAC injections
same,"Urine and fecal parameters (words, FIG. 13)",[4],did not affect parameters in vehicle-infused rats
same,Effect of bolus L-NAC on bolus opioid,[5],completely without effect
same,A-a gradient,[6],17.9 ± 0.7 mmHg
same,Arterial blood pH,[6],7.442 ± 0.008
same,"Beneficial effects on ABG chemistry and A-a gradient (words, FIG. 9)",[6],still evident 30 min after the second injection of L-NAC
same,pCO2,[6],35.7 ± 0.03 mmHg
same,pO2,[6],92.1 ± 0.07 mmHg
same,sO2,[6],99.0 ± 0.4%
same,A-a gradient,[6]; iv,27.6 ± 0.8 mmHg and 23.1 ± 1.3 mmHg and 26.1 ± 1.5 mmHg
same,Arterial blood pH,[6]; iv,7.162 ± 0.026 and 7.392 ± 0.006 and 7.443 ± 0.013
same,pCO2,[6]; iv,57.3 ± 1.5 mmHg and 36.2 ± 1.1 mmHg and 35.2 ± 0.4 mmHg
same,pO2,[6]; iv,58.4 ± 1.9 mmHg and 86.3 ± 1.6 mmHg and 84.5 ± 1.4 mmHg
same,sO2,[6]; iv,59.1 ± 1.8% and 93.6 ± 0.9% and 92.4 ± 1.2%
"CCOC(=O)[C@H](CS)NC(C)=O [L-NACme, N-acetyl-L-cysteine ethyl ester]","Frequency, Drug - entire 75 min, % change",[7]; [8],+11 ± 2 %
same,"Minute Ventilation, Drug - entire 75 min, % change",[7]; [8],−19 ± 4 %
same,"Tidal Volume, Drug - entire 75 min, % change",[7]; [8],−22 ± 3 %
same,"Frequency, Pre values",[7]; [9],98 ± 4
same,"Minute Ventilation, Pre values",[7]; [9],259 ± 17
same,"Tidal Volume, Pre values",[7]; [9],2.61 ± 0.16
same,"Frequency, Morphine - first 15 min response (%)",[7]; [10],−4.9 ± 2.8%
same,"Frequency, Morphine - peak (+) response (%)",[7]; [10],+42 ± 6 %
same,"Frequency, Morphine peak (−) response (%)",[7]; [10],−22 ± 4 %
same,"Minute Ventilation, Morphine - first 15 min response (%)",[7]; [10],−35 ± 3 %
same,"Minute Ventilation, Morphine - peak (+) response (%)",[7]; [10],+20 ± 6 %
same,"Minute Ventilation, Morphine peak (−) response (%)",[7]; [10],−54 ± 4 %
same,"Tidal Volume, Morphine - first 15 min response (%)",[7]; [10],−34 ± 3 %
same,"Tidal Volume, Morphine - peak (+) response (%)",[7]; [10],−16 ± 6 %
same,"Tidal Volume, Morphine peak (−) response (%)",[7]; [10],−40 ± 6 %

# Source: patent US20260256723A1, “THIOL-BASED COMPOUNDS AND COMPOSITIONS AND USES THEREOF” (CASE WESTERN RESERVE UNIVERSITY, priority 2022, published 2026)
